Experiment [1] deals with T1, DPP-4 (derived from porcine kidney) (Sus scrofa, UniProt P22411).
T1 construct: purchased Sigma; host or cells: porcine kidney (tissue-derived enzyme)
As to the kind of experiment: DPP-4 inhibition rate / IC50 value measurement (Gly-Pro-MCA fluorescence). The class given is biochemical. The settings on record: individual oligopeptides. How it is done: Thirty-five μl of sample solution obtained by dissolving a sample in 50 mM tris-hydrochloric acid buffer (pH 7.5) and 15 μl of DPP-4 (manufactured by Sigma, derived from porcine kidney; 8.6 mU/ml) that was dissolved in 50 mM tris-hydrochloric acid buffer (pH 7.5) were mixed in a microtiter plate well (manufactured by NUNC, trade name “237015”) and incubated at 37° C. for 10 minutes.
To this, 50 μl of substrate solution (obtained by dissolving glycylproline-4-methylcoumarin-7-amide (Gly-Pro-MCA) in 50 mM tris-hydrochloric acid buffer (pH 7.5) at 10 μM) kept at 37° C. in advance was added and mixed to react at 37° C. for 20 minutes.
The fluorescence intensity of 7-amino-4-methylcoumarin (AMC) released by DPP-4 was measured with time using a microplate reader-type fluorescence detector (manufactured by Corona Electric Co., Ltd., trade name “SH-9000”). As for the wavelength used for the measurement, the excitation wavelength was 380 nm and the measurement wavelength was 460 nm Instead of sample, 50 mM tris-hydrochloric acid buffer (pH 7.5) in an identical amount was employed as a control and the fluorescence intensity thereof was measured.
The activity of DPP-4 was expressed in an average gradient of change in the amount of fluorescence intensity during a reaction time. As for a DPP-4 inhibition rate, difference was calculated by, with the control as 100%, subtracting the activity of sample from the above-mentioned control to use as the inhibition rate (%).
According to the above method of measuring the DPP-4 inhibition rate, a 50% inhibitory concentration (IC50 value) of the DPP-4 activity in terms of one ml of reaction system was calculated by using the inhibition rates obtained by changing the concentration of sample.

Experiment [2] in a line: Glucose tolerance test in mice, blood glucose level. The class given is in vivo, C57BL/6J male mice. The following applies: 3 mg/kg oral one hour before glucose; 15 minutes after the administration of glucose. How it is done:
(1) Twenty-five C57BL/6J male mice at an age of eight weeks (Charles River Laboratories Japan) were subjected to habituation breeding for one week. For seven days prior to a glucose tolerance test, each mouse was given 0.25 ml of distilled water to acclimate to oral administration.
(2) On the day before the glucose tolerance test, the mouse was fasted except for water for 18 hours starting at 16 o'clock. […] The five groups consist of a positive control group, collagen peptide composition administered groups (400 mg/kg, 1000 mg/kg, and 2000 mg/kg), and a negative control group.
(i) The positive control group was orally administered sitagliptin (manufactured by MSD, Januvia) at 3 mg/kg one hour before administration of 20 w/v % glucose aqueous solution.
(ii) The collagen peptide composition administered groups were orally administered the above peptide powder dissolved in distilled water to be a dose of 400 mg/kg, 1000 mg/kg, or 2000 mg/kg 15 minutes before the administration of glucose.
(iii) The negative control group was orally administered 20 ml/kg of distilled water 15 minutes before the administration of glucose.
(3) The glucose was administered. […]
(4) After the administration of glucose, the blood was drawn from the tail at 15, 30, 60, and 120 minutes; and the blood glucose level was measured using a simple blood glucose measuring instrument (manufactured by Arkray Factory, GT-164). […]

Converted amounts (≈) assume the structure as drawn. Non-standard residues stand in square brackets, D forms with d. Residues, ends and D or L forms follow the SMILES beside them. No end group written: not given here. Hyp = O=C(O)[C@@H]1C[C@@H](O)CN1

T1 sequence (P22411 whole entry): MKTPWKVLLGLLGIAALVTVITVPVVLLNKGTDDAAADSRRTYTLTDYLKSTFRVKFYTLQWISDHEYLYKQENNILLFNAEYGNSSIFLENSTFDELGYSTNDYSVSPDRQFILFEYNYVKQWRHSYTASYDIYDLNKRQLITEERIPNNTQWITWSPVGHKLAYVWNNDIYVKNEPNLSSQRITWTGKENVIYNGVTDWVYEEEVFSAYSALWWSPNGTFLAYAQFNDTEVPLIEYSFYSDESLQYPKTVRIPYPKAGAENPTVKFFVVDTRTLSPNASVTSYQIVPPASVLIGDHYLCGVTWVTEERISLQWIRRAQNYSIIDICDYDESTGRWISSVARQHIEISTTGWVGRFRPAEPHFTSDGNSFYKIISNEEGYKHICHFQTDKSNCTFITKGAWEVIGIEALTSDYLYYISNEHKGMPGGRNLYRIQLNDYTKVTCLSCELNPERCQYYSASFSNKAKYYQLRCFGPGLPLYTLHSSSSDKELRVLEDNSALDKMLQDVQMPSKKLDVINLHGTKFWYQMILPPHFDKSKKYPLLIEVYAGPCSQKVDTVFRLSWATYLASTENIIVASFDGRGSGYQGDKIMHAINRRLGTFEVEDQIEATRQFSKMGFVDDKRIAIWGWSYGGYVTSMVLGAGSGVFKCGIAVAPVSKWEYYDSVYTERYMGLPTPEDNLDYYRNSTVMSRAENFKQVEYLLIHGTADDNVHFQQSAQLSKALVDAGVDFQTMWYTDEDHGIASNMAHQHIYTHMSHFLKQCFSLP

As for `C[C@H](N)C(=O)N1C[C@H](O)C[C@H]1C(=O)NCC(=O)O` [AlaHypGly] (H-Ala-[Hyp]-Gly-OH; N-terminus and C-terminus assumed), the “IC50 value” in experiment [1] turned out to be 2450 µg/mL (≈ 9450 µM).
As for `CC[C@H](C)[C@H](N)C(=O)N1C[C@H](O)C[C@H]1C(=O)NCC(=O)O` [IleHypGly] (H-Ile-[Hyp]-Gly-OH; N-terminus and C-terminus assumed), the “IC50 value” in experiment [1] turned out to be 150 µg/mL (≈ 498 µM).
Same read-out and setting: with GPIGPV [GlyProIleGlyProVal] the figure was 5 µg/mL.
Take `N[C@@H](CC(=O)N1CCn2c(nnc2C(F)(F)F)C1)Cc1cc(F)c(F)cc1F` [sitagliptin]: in experiment [2], the blood glucose level came to 220 mg/dL.
With `CC(C)C[C@H](N)C(=O)N1C[C@H](O)C[C@H]1C(=O)NCC(=O)N1CCC[C@H]1C(=O)N[C@@H](C)C(=O)O` [LeuHypGlyProAla] (H-L[Hyp]GPA-OH; N-terminus and C-terminus assumed), the “IC50 value” in experiment [1] was found to be 390 µg/mL (≈ 831 µM).
As to `CC(C)C[C@H](N)C(=O)N1C[C@H](O)C[C@H]1C(=O)NCC(=O)O` [LeuHypGly] (H-Leu-[Hyp]-Gly-OH; N-terminus and C-terminus assumed), the “IC50 value” in experiment [1] was 39 µg/mL (≈ 129 µM).
